This passage reports Kd and viability results from patent US20210347709A1, “RADIOFLUORINATED GPC3-BINDING PEPTIDES FOR PET IMAGING OF HEPATOCELLULAR CARCINOMA” (University of Southern California, priority 2020, published 2021).

One series addresses T1, GPC3 (Homo sapiens, UniProt P51654).
T1 construct: purchased Novoprotein, China
Put plainly: Binding assay by surface plasmon resonance (SPR). The following applies: GPC3 protein immobilized on 3D Dextran chip. The procedure:
Binding Assay. The binding affinity of the GP2076 or GP2633 peptide for GPC3 was determined using surface plasmon resonance (SPR) measurements (PlexArray HT A100, Plexera, USA). In brief, after the GPC3 protein (Novoprotein, China) was immobilized on a 3D Dextran chip, the GP2076 or GP2633 peptide flowed at increasing concentrations (400 nM and 800 nM). The results were analyzed by PlexeraDE software.
(SPR reads the build-up and loss of mass on a sensor chip optically.)

Series [1] in a line: In vitro biocompatibility (cell counting Kit-8 cell viability). The series is classed as cell-based. The note with it: human, HepG2 cells, all concentrations 120 to 840 μg/ml. The procedure: In Vitro Biocompatibility. A colorimetric assay was utilized to determine cell viability after treating GPC3 positive HepG2 cells with the GP2076 or GP2633 peptide. The assay was carried out according to the instruction of the manufacturer. In brief, HepG2 cells were seeded at a density of 1×10^4 cells/well in a 96-well plate. After the incubation of the GP2076 or GP2633 peptide at various concentrations (0, 120, 240, 360, 480, 600, 720, and 840 μg/ml) with HepG2 cells for 24 h, the HepG2 cells were examined using the cell counting Kit-8 (KeyGen Biotech, Nanjing, China). The absorbance at 450 nm of all the wells in the 96-well microplate was recorded on a microplate reader (BIOTEK ELX800, USA). The experiment was performed in quadruplicate.
For orientation: Tetrazolium dyes change colour on reduction, which living cells bring about.

T1 sequence (P51654 25-554): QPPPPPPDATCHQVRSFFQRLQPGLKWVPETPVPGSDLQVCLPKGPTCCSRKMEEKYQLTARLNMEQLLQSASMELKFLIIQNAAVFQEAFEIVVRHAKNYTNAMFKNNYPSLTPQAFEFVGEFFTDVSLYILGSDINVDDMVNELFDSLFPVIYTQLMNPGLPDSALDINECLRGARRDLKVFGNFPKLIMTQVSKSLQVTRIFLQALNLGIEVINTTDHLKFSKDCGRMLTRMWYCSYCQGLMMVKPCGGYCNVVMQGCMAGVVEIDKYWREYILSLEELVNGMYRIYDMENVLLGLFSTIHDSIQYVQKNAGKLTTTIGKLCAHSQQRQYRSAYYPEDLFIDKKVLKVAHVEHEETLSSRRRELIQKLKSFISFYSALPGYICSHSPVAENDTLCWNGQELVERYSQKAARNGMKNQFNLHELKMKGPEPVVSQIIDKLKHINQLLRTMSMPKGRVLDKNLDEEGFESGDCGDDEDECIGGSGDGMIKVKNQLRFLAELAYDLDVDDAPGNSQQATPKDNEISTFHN

For the molecule `CC(C)C[C@H](NC(=O)[C@H](CCCNC(=N)N)NC(=S)Nc1ccc(CC2CN(CC(=O)O)CCN(CC(=O)O)CCN2CC(=O)O)cc1)C(=O)N[C@@H](CC(N)=O)C(=O)N[C@H](C(=O)NCC(=O)NCC(=O)N[C@H](C(=O)N[C@@H](Cc1ccc(O)cc1)C(=O)N[C@@H](Cc1ccccc1)C(=O)N[C@@H](CC(C)C)C(=O)N[C@H](C(=O)N[C@H](C(=O)N[C@@H](CCCNC(=N)N)C(=O)N[C@@H](CCC(N)=O)C(=O)O)[C@@H](C)O)[C@@H](C)O)[C@@H](C)O)C(C)C` (stereo partly shown) [GP2076], the Kd at GPC3 was found to be 0.101 µM. In series [1], this molecule showed a viability at 24 h greater than 90%.
`CC(C)C[C@H](NC(=O)[C@H](CCCNC(=N)N)NC(=O)[C@H](CC(N)=O)NC(=O)[C@H](CC(=O)O)NC(=O)[C@H](CCCNC(=N)N)NC(=O)CNC(=O)CNC(=O)CNC(=S)Nc1ccc(CC2CN(CC(=O)O)CCN(CC(=O)O)CCN2CC(=O)O)cc1)C(=O)N[C@@H](CC(N)=O)C(=O)N[C@H](C(=O)NCC(=O)NCC(=O)N[C@H](C(=O)N[C@@H](Cc1ccc(O)cc1)C(=O)N[C@@H](Cc1ccccc1)C(=O)N[C@@H](CC(C)C)C(=O)N[C@H](C(=O)N[C@H](C(=O)N[C@@H](CCCNC(=N)N)C(=O)N[C@@H](CCC(N)=O)C(=O)O)[C@@H](C)O)[C@@H](C)O)[C@@H](C)O)C(C)C` (stereo partly shown) [GP2633] registered a Kd on GPC3 of 0.0633 µM. The viability at 24 h in series [1] was greater than 90%.

As a reminder, the Kd is the equilibrium constant for the complex coming apart. A lower Kd goes with tighter binding. What is called viability is the share of living cells, or the viability signal relative to a control. Lower therefore signals more harm to the cells.
